Laboratory results published in BindingDB's records for doi:10.1016/j.bmcl.2006.01.055 (Bristol-Myers Squibb Pharmaceutical Research Institute, 2006).

Test: Inhibition of beta-amyloid peptide production in CHO N9 cell line

| Compound | IC50 [nM] |
| --- | --- |
| CCC[C@H](C(N)=O)[C@@H](CC(C)C)C(=O)N[C@H]1CCCCN(Cc2cccc(Nc3ccccc3Cl)c2)C1=O | 29 |
| CCC[C@H](C(N)=O)[C@@H](CC(C)C)C(=O)N[C@H]1CCCCN(Cc2cccc(Nc3cccc(OC)c3)c2)C1=O | 54 |
| CCC[C@H](C(N)=O)[C@@H](CC(C)C)C(=O)N[C@H]1CCCCN(Cc2cccc(Nc3ccc(C(F)(F)F)cc3)c2)C1=O | 30 |
| CCC[C@H](C(=O)NC1CCCC1)[C@@H](CC(C)C)C(=O)N[C@H]1CCCCN(Cc2cccc(Oc3ccccc3)c2)C1=O | 6000 |
| CCC[C@H](C(N)=O)[C@@H](CC(C)C)C(=O)N[C@H]1CCCCN(Cc2cccc(Nc3ccc(F)c(Cl)c3)c2)C1=O | 17 |
| CCC[C@H](C(=O)NCc1ccco1)[C@@H](CC(C)C)C(=O)N[C@H]1CCCCN(Cc2cccc(Oc3ccccc3)c2)C1=O | 3000 |
| CCCCNC(=O)[C@@H](CCC)[C@@H](CC(C)C)C(=O)N[C@H]1CCCCN(Cc2cccc(Oc3ccccc3)c2)C1=O | 5000 |
| CCC[C@H](C(N)=O)[C@@H](CC(C)C)C(=O)N[C@H]1CCCCN(Cc2cccc(Nc3ccc(OC)cc3)c2)C1=O | 160 |
| CCC[C@H](C(N)=O)[C@@H](CC(C)C)C(=O)N[C@H]1CCCCN(Cc2cccc(Nc3ccc4c(c3)OCO4)c2)C1=O | 152 |
| CCC[C@H](C(=O)NO)[C@@H](CC(C)C)C(=O)N[C@H]1CCCCN(Cc2ccccc2)C1=O | 6800 |
| CCC[C@H](C(=O)NC/C=C/Cc1ccccc1)[C@@H](CC(C)C)C(=O)N[C@H]1CCCCN(Cc2cccc(Oc3ccccc3)c2)C1=O | 3000 |
| CCC[C@H](C(N)=O)[C@@H](CC(C)C)C(=O)N[C@H]1CCCCN(Cc2cccc(Nc3cccc(C)c3)c2)C1=O | 17 |
| CCC[C@H](C(N)=O)[C@@H](CC(C)C)C(=O)N[C@H]1CCCCN(Cc2cccc(Nc3ccccc3)c2)C1=O [(2R,3S)-N1-((S)-1-(3-(phenylamino)benzyl)-2-oxoazepan-3-yl)-2-isobutyl-3-propylsuccinamide] | 15 |
| CCC[C@H](C(=O)NO)[C@@H](CC(C)C)C(=O)N[C@H]1CCCCN(Cc2cccc(Oc3ccccc3)c2)C1=O [(2S,3R)-N1-hydroxy-3-isobutyl-N4-((S)-2-oxo-1-(3-phenoxybenzyl)azepan-3-yl)-2-propylsuccinamide] | 200 |
